Measurements as given in patent publication US20260132129A1 (Genesis Therapeutics, Inc., priority 2022, published 2026).

Target: T1, PI3Kα H1047R (T47D cells) (Homo sapiens, UniProt P42336, H1047R)
T1 construct: endogenous in cells; host or cells: T47D cells
Assay: PI3Kα cellular assay: pAKT HTRF in T47D cells after EGF stimulation
Assay type: cell-based
Settings: for IC50: T47D cells (PI3Kα H1047R), pAKT S473 HTRF, EGF stimulation; for T47D pAKT S473 HTRF IC50 (H1047R): T47D (H1047R) selectivity over SKBR3 (WT): selectivity of T47D (H1047R) over SKBR3 (WT) pAKT IC50
Summary of the method: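 pAKT read by HTRF in lysates of EGF-stimulated (20 ng/mL, 10 min) T47D H1047R cells. Before stimulation, serum-starved cells (16 h) received compound for 1 h at 37 °C, dosed from 10,000 nM down to 0.5 nM in 3-fold steps.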

T1 sequence (P42336 whole entry H1047R): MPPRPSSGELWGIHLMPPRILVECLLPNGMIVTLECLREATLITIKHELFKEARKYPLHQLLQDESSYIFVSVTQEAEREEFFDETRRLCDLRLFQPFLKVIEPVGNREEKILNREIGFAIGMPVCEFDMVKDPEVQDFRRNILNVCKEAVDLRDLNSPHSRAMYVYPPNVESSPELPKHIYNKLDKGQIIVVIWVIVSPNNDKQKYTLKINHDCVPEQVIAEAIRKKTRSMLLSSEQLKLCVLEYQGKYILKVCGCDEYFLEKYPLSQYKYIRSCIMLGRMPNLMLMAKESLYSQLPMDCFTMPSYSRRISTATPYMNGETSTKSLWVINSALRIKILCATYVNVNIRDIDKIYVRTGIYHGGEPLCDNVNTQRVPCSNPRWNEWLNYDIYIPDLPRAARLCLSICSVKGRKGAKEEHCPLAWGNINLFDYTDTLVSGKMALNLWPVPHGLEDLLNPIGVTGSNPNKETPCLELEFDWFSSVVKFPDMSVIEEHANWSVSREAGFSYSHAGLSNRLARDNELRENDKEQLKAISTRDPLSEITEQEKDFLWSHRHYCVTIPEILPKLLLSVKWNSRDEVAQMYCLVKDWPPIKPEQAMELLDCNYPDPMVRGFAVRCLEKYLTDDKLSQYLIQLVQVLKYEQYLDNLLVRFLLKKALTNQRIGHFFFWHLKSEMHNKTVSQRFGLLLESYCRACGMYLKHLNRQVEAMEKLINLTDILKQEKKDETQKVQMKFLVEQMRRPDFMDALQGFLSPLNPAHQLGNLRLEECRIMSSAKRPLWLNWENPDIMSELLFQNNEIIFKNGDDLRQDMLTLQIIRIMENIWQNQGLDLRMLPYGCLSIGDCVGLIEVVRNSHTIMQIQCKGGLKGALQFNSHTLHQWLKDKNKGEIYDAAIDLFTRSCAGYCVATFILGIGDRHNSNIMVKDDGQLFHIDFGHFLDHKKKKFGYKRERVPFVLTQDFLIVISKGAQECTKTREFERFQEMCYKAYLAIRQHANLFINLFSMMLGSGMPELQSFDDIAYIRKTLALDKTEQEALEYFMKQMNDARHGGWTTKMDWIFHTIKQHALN
T1 sequence (P27986 whole entry partner): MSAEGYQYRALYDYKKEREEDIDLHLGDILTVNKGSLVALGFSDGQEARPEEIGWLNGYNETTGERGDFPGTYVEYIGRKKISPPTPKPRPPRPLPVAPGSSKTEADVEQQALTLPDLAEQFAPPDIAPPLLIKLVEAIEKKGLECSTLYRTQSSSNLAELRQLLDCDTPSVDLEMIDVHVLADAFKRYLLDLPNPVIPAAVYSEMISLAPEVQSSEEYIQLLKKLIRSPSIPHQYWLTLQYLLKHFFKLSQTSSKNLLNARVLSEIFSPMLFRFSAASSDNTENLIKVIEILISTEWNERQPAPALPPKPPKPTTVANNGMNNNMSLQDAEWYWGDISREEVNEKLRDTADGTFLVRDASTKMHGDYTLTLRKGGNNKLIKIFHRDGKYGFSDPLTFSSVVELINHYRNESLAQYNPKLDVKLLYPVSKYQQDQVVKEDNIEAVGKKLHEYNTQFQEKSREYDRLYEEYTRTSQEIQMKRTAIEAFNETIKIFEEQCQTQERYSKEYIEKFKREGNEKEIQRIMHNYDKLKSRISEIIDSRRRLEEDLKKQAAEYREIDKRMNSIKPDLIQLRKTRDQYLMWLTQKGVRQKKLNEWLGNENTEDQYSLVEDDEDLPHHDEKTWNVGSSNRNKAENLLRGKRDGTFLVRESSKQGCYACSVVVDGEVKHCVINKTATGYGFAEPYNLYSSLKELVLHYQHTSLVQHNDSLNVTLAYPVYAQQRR

Row | Compound | IC50 [nM] | T47D pAKT S473 HTRF IC50 (H1047R): T47D (H1047R) selectivity over SKBR3 (WT)
1 | Cc1cc([C@@H](C)Nc2ccccc2-c2ccnnc2)c2nc(N3Cc4ccccc4C3)c(C3CC3)c(=O)n2c1 [Compound 847] | > 2000 | C (C denotes ≤5-fold)
2 | Cc1cc([C@@H](C)Nc2ccccc2C(=O)O)c2nc(N3CC4CC(F)(F)CC4C3)c(C)c(=O)n2c1 (stereo partly shown) [Compound 849] | 100 to 500 | A (A denotes >20-fold)
3 | Cc1cc([C@H](C)Nc2ccccc2C(=O)O)c2nc(N3CC4CC(F)(F)CC4C3)c(C)c(=O)n2c1 (stereo partly shown) [Compound 850] | > 2000 | C (C denotes ≤5-fold)
4 | Cc1cc([C@@H](C)Nc2ccccc2C(=O)O)c2nc(-c3ccc4c(c3)COC4)cc(=O)n2c1 [Compound 851] | < 100 | A (A denotes >20-fold)
5 | Cc1cc([C@H](C)Nc2ccccc2C(=O)O)c2nc(-c3ccc4c(c3)COC4)cc(=O)n2c1 [Compound 852] |  | C (C denotes ≤5-fold)
6 | Cc1cc([C@@H](C)Nc2ccccc2C(=O)O)c2nc(-c3ccc4c(c3)CC(F)(F)C4)c(C)c(=O)n2c1 [Compound 853] | < 100 | A (A denotes >20-fold)
7 | Cc1cc([C@H](C)Nc2ccccc2C(=O)O)c2nc(-c3ccc4c(c3)CC(F)(F)C4)cc(=O)n2c1 [Compound 854] | > 2000 | 
8 | Cc1cc(C(C)Nc2ccccc2C(=O)O)c2nc(-c3ccc4c(n3)c(C)nn4C)cc(=O)n2c1 (stereo not shown) [Compound 858] | 100 to 500 | A (A denotes >20-fold)
9 | Cc1cc(C(C)Nc2ccccc2C(=O)O)c2nc(-c3ccc4c(n3)c(C)nn4C)c(C)c(=O)n2c1 (stereo not shown) [Compound 859] | 100 to 500 | A (A denotes >20-fold)
10 | COc1cccc(NC(C)c2cc(C)cn3c(=O)cc(N4Cc5ccccc5C4)nc23)c1CO (stereo not shown) [Compound 865] | > 2000 | C (C denotes ≤5-fold)
11 | Cc1cc([C@@H](C)Nc2ccccc2C(=O)O)c2nc(N3C[C@H](C)C[C@H](C(F)F)C3)cc(=O)n2c1 [Compound 868] | 500 to 2000 | B (B denotes 20-fold≥value>5-fold)
12 | Cc1cc(C(C)Nc2ccccc2C(=O)O)c2nc(-c3ccc4c(c3)c(N)nn4C3CC3)cc(=O)n2c1 (stereo not shown) [Compound 870] | 100 to 500 | A (A denotes >20-fold)
13 | C=CC(=O)Nc1ccc(C(=O)O)c(N[C@H](C)c2cc(C)cn3c(=O)cc(N4CCOCC4)nc23)c1 [Compound 872] | > 2000 | C (C denotes ≤5-fold)
14 | C=CC(=O)Nc1ccc(C(=O)O)c(N[C@@H](C)c2cc(C)cn3c(=O)cc(N4CCOCC4)nc23)c1 [Compound 873] | > 2000 | C (C denotes ≤5-fold)
15 | Cc1cc([C@@H](C)Nc2ccccc2-c2ccnnc2)c2nc(N3Cc4ccccc4C3)c(C3CC3)c(=O)n2c1 [Compound 874] | > 2000 | 
16 | Cc1cc([C@H](C)Nc2ccccc2-c2ccnnc2)c2nc(N3Cc4ccccc4C3)c(C3CC3)c(=O)n2c1 [Compound 875] | < 100 | A (A denotes >20-fold)
17 | Cc1cc([C@@H](C)NCc2cccnn2)c2nc(N3Cc4ccccc4C3)cc(=O)n2c1 [Compound 876] | > 2000 | C (C denotes ≤5-fold)
18 | Cc1cc(C(C)Nc2ccccc2-c2nnn[nH]2)c2nc(N3Cc4ccccc4C3)cc(=O)n2c1 (stereo not shown) [Compound 877] | 100 to 500 | A (A denotes >20-fold)
19 | Cc1cc(C(C)Nc2ccccc2C(=O)O)c2nc(-c3ccc4c(c3)c(C)nn4C3CC3)cc(=O)n2c1 (stereo not shown) [Compound 890] | < 100 | A (A denotes >20-fold)
20 | CC(Nc1ccccc1C(=O)O)c1cc(C(F)(F)F)cn2c(=O)cc(N3C[C@@H](C)O[C@@H](C)C3)nc12 (stereo partly shown) [Compound 898] |  | A (A denotes >20-fold)
21 | Cc1cc(C(C)Nc2ccccc2C(=O)O)c2nc(C3C[C@@H](C)O[C@@H](C)C3)c(C)c(=O)n2c1 (stereo partly shown) [Compound 901] |  | A (A denotes >20-fold)

Row | Compound | IC50 [nM] | T47D pAKT S473 HTRF IC50 (H1047R): T47D (H1047R) selectivity over SKBR3 (WT)
22 | Cc1cc([C@H](C)Nc2ccccc2C(=O)O)c2nc(-c3ccc4c(c3)c(C)cn4C)c(C)c(=O)n2c1 [Compound 903] | 500 to 2000 | B (B denotes 20-fold≥value>5-fold)
23 | Cc1cc(C(C)Nc2ccccc2C(=O)O)c2nc(N3CC4(CCOCC4)C3)c(C)c(=O)n2c1 (stereo not shown) [Compound 904] | 100 to 500 | A (A denotes >20-fold)
24 | Cc1cc([C@@H](C)N[C@@H]2CCCC[C@@H]2C(=O)O)c2nc(N3CCOCC3)cc(=O)n2c1 [Compound 905] | > 2000 | C (C denotes ≤5-fold)
25 | Cc1cc([C@H](C)N[C@@H]2CCCC[C@@H]2C(=O)O)c2nc(N3CCOCC3)cc(=O)n2c1 [Compound 906] | > 2000 | C (C denotes ≤5-fold)
26 | Cc1c(N2C[C@@H](C)O[C@@H](C)C2)nc2c([C@@H](C)Nc3ccccc3C(=O)O)cc(C(F)(F)F)cn2c1=O [Compound 907] |  | C (C denotes ≤5-fold)
27 | Cc1cc([C@H](C)Nc2ccccc2-c2ccnnc2)c2nc(N3Cc4ccccc4C3)c(C)c(=O)n2c1 [Compound 909] | > 2000 | C (C denotes ≤5-fold)
28 | Cc1cc([C@H](C)Nc2ccccc2C(=O)O)c2ncc(Cc3ccc(F)cc3)c(=O)n2c1 [Compound 914] | > 2000 | C (C denotes ≤5-fold)
29 | Cc1cc(C(C)Nc2ccccc2C(=O)O)c2nc(N3C[C@@H](C)O[C@@H](C)C3)c(C)c(=O)n2c1 (stereo partly shown) [Compound 915] | 100 to 500 | A (A denotes >20-fold)
30 | Cc1cc([C@H](C)Nc2ccccc2C(=O)O)c2nc(N3CC4(CCNCC4)C3)c(C)c(=O)n2c1 [Compound 917] |  | C (C denotes ≤5-fold)
31 | Cc1cc(C(C)Nc2cccc3oc(=O)[nH]c23)c2nc(N3CCOCC3)cc(=O)n2c1 (stereo not shown) [Compound 918] | > 2000 | C (C denotes ≤5-fold)
32 | Cc1cc([C@H](C)Nc2ccccc2C(=O)O)c2nc(-c3ccc4c(c3)c(N(C)C)nn4C)c(C)c(=O)n2c1 [Compound 920] | > 2000 | C (C denotes ≤5-fold)
33 | CC(Nc1ccccc1C(=O)O)c1cc(C(F)(F)F)cn2c(=O)cc(N3Cc4ccccc4C3)nc12 (stereo not shown) [Compound 921] | > 2000 | C (C denotes ≤5-fold)
34 | CC(Nc1ccccc1C(=O)O)c1cc(C(F)(F)F)cn2c(=O)cc(N3Cc4ccccc4C3)nc12 (stereo not shown) [Compound 922] | < 100 | A (A denotes >20-fold)
35 | Cc1cc([C@@H](C)Nc2ccccc2C(=O)O)c2nc(-c3ccc4c(C)n[nH]c4c3)cc(=O)n2c1 [Compound 923] |  | B (B denotes 20-fold≥value>5-fold)
36 | Cc1cc([C@@H](C)Nc2ccccc2C(=O)O)c2nc(C3C[C@@H](C)O[C@@H](C)C3)cc(=O)n2c1 (stereo partly shown) [Compound 924] | 100 to 500 | A (A denotes >20-fold)
37 | Cc1cc([C@H](C)Nc2ccccc2C(=O)O)c2nc(C3C[C@@H](C)O[C@@H](C)C3)cc(=O)n2c1 (stereo partly shown) [Compound 925] | 500 to 2000 | B (B denotes 20-fold≥value>5-fold)
38 | Cc1cc(C(C)Nc2ccccc2C(=O)C(F)(F)F)c2nc(N3Cc4ccccc4C3)c(C)c(=O)n2c1 (stereo not shown) [Compound 926] | > 2000 | C (C denotes ≤5-fold)
39 | Cc1cc([C@@H](C)Nc2ccccc2C(=O)O)c2nc(-c3ccc4c(C)nn(C)c4c3)c(C)c(=O)n2c1 [Compound 927] | < 100 | A (A denotes >20-fold)
40 | Cc1cc([C@H](C)Nc2ccccc2C(=O)O)c2nc(-c3ccc4c(C)nn(C)c4c3)c(C)c(=O)n2c1 [Compound 928] | > 2000 | C (C denotes ≤5-fold)
41 | Cc1cc(C(C)CNc2ccccc2C(=O)O)c2nc(N3CCOCC3)cc(=O)n2c1 (stereo not shown) [Compound 929] | > 2000 | C (C denotes ≤5-fold)
42 | Cc1cc(C(C)Nc2cccc(CO)c2C(=O)O)c2nc(-c3ccc4c(c3)c(C)nn4C)cc(=O)n2c1 (stereo not shown) [Compound 933] | > 2000 | C (C denotes ≤5-fold)
